Measured values: PubChem BioAssay AID1745844 (Carcinogenic Potency Database (CPDB), 2022)
Several values for one entry are separate records, joined by “and”; a condition that tells them apart may be missing. Identical values can stand only once.

Test system: rodent lifetime carcinogenesis bioassay, tumor incidence TD50
Assay: carcinogenic potency in animals, long-term in vivo studies, CPDB compilation (AID 1745844)
Settings: rat, strain Sprague-Dawley

`C=CCl` was tested, and the TD50 (females, inhaled, site: extrahepatic tissue, lesion: angioma, dosed 52 weeks, study length 111 weeks) was 115 mg/kg/day, the TD50 (females, inhaled, site: extrahepatic tissue, lesion: angioma, dosed 52 weeks, study length 139 weeks) was 399 mg/kg/day and the TD50 (females, inhaled, site: extrahepatic tissue, lesion: angiosarcoma, dosed 25 weeks, study length 135 weeks) was 2420 mg/kg/day. The TD50 (females, inhaled, site: extrahepatic tissue, lesion: angiosarcoma, dosed 52 weeks, study length 111 weeks) was 52.9 mg/kg/day, the TD50 (females, inhaled, site: extrahepatic tissue, lesion: angiosarcoma, dosed 52 weeks, study length 131 weeks) was 21400 mg/kg/day and the TD50 (females, inhaled, site: kidney, lesion: nephroblastoma, dosed 25 weeks, study length 135 weeks) was 3140 mg/kg/day. The TD50 (females, inhaled, site: kidney, lesion: nephroblastoma, dosed 52 weeks, study length 111 weeks) was 17.5 mg/kg/day, the TD50 (females, inhaled, site: kidney, lesion: nephroblastoma, dosed 52 weeks, study length 139 weeks) was 230 mg/kg/day and the TD50 (females, inhaled, site: liver, lesion: angioma, dosed 25 weeks, study length 127 weeks) was 913 mg/kg/day. It also gave a TD50 (females, inhaled, site: liver, lesion: angioma, dosed 25 weeks, study length 135 weeks) of 507 mg/kg/day, a TD50 (females, inhaled, site: liver, lesion: angioma, dosed 52 weeks, study length 111 weeks) of 30.7 mg/kg/day and a TD50 (females, inhaled, site: liver, lesion: angioma, dosed 52 weeks, study length 139 weeks) of 378 mg/kg/day. It also gave a TD50 (females, inhaled, site: liver, lesion: angioma, dosed 71 weeks, study length 71 weeks) of 9130 mg/kg/day, a TD50 (females, inhaled, site: liver, lesion: angiosarcoma, dosed 25 weeks, study length 127 weeks) of 4460 mg/kg/day and a TD50 (females, inhaled, site: liver, lesion: angiosarcoma, dosed 25 weeks, study length 135 weeks) of 2460 mg/kg/day. For the same compound, the TD50 (females, inhaled, site: liver, lesion: angiosarcoma, dosed 52 weeks, study length 111 weeks) was 20.2 mg/kg/day, the TD50 (females, inhaled, site: liver, lesion: angiosarcoma, dosed 52 weeks, study length 131 weeks) was 735 mg/kg/day and 21 mg/kg/day and the TD50 (females, inhaled, site: liver, lesion: angiosarcoma, dosed 52 weeks, study length 139 weeks) was 113 mg/kg/day. It also gave a TD50 (females, inhaled, site: liver, lesion: angiosarcoma, dosed 71 weeks, study length 71 weeks) of 240 mg/kg/day, a TD50 (females, inhaled, site: liver, lesion: hepatocellular carcinoma, dosed 71 weeks, study length 71 weeks) of 1720 mg/kg/day and a TD50 (females, inhaled, site: liver, lesion: hepatoma, dosed 25 weeks, study length 135 weeks) of 357 mg/kg/day. The TD50 (females, inhaled, site: liver, lesion: hepatoma, dosed 52 weeks, study length 131 weeks) was 244 mg/kg/day, the TD50 (females, inhaled, site: liver, lesion: hepatoma, dosed 52 weeks, study length 139 weeks) was 140 mg/kg/day and the TD50 (females, inhaled, site: mammary gland, lesion: adenocarcinoma, dosed 25 weeks, study length 135 weeks) was 291 mg/kg/day. The TD50 (females, inhaled, site: mammary gland, lesion: adenocarcinoma, dosed 52 weeks, study length 111 weeks) was 5.91 mg/kg/day, the TD50 (females, inhaled, site: mammary gland, lesion: adenocarcinoma, dosed 52 weeks, study length 131 weeks) was 1.66 mg/kg/day and the TD50 (females, inhaled, site: mammary gland, lesion: adenocarcinoma, dosed 52 weeks, study length 139 weeks) was 141 mg/kg/day. It also gave a TD50 (males, by gavage, site: Zymbal's gland, lesion: carcinoma, dosed 52 weeks, study length 127 weeks) of 315 mg/kg/day, a TD50 (males, by gavage, site: Zymbal's gland, lesion: carcinoma, dosed 59 weeks, study length 129 weeks) of 4.75 mg/kg/day and a TD50 (males, by gavage, site: any site (literature study), lesion: several types, types named in the paper, dosed 52 weeks, study length 127 weeks) of 37.9 mg/kg/day. It also gave a TD50 (males, by gavage, site: any site (literature study), lesion: several types, types named in the paper, dosed 59 weeks, study length 129 weeks) of 16.1 mg/kg/day, a TD50 (males, by gavage, site: extrahepatic tissue, lesion: angioma, dosed 52 weeks, study length 127 weeks) of 409 mg/kg/day and a TD50 (males, by gavage, site: kidney, lesion: nephroblastoma, dosed 52 weeks, study length 127 weeks) of 102 mg/kg/day. The TD50 (males, by gavage, site: liver, lesion: angioma, dosed 52 weeks, study length 127 weeks) was 430 mg/kg/day, the TD50 (males, by gavage, site: liver, lesion: angiosarcoma, dosed 52 weeks, study length 127 weeks) was 57.4 mg/kg/day and the TD50 (males, by gavage, site: liver, lesion: angiosarcoma, dosed 59 weeks, study length 129 weeks) was 8.45 mg/kg/day. For the same compound, the TD50 (males, by gavage, site: liver, lesion: hepatoma, dosed 59 weeks, study length 129 weeks) was 3.36 mg/kg/day, the TD50 (males, inhaled, site: Zymbal's gland, lesion: carcinoma, dosed 25 weeks, study length 115 weeks) was 284 mg/kg/day and the TD50 (males, inhaled, site: Zymbal's gland, lesion: carcinoma, dosed 25 weeks, study length 139 weeks) was 226 mg/kg/day. For the same compound, the TD50 (males, inhaled, site: Zymbal's gland, lesion: carcinoma, dosed 52 weeks, study length 131 weeks) was 2320 mg/kg/day, the TD50 (males, inhaled, site: Zymbal's gland, lesion: carcinoma, dosed 52 weeks, study length 139 weeks) was 50.4 mg/kg/day and the TD50 (males, inhaled, site: adrenal gland, lesion: one or several types, types not named, dosed 52 weeks, study length 130 weeks) was 251 mg/kg/day. For the same compound, the TD50 (males, inhaled, site: any site (literature study), lesion: several types, types named in the paper, dosed 25 weeks, study length 115 weeks) was 134 mg/kg/day, the TD50 (males, inhaled, site: any site (literature study), lesion: several types, types named in the paper, dosed 25 weeks, study length 139 weeks) was 284 mg/kg/day and the TD50 (males, inhaled, site: any site (literature study), lesion: several types, types named in the paper, dosed 52 weeks, study length 130 weeks) was 17.3 mg/kg/day. For the same compound, the TD50 (males, inhaled, site: any site (literature study), lesion: several types, types named in the paper, dosed 52 weeks, study length 131 weeks) was 950 mg/kg/day, the TD50 (males, inhaled, site: any site (literature study), lesion: several types, types named in the paper, dosed 52 weeks, study length 139 weeks) was 8.67 mg/kg/day and the TD50 (males, inhaled, site: brain, lesion: neuroblastoma, dosed 52 weeks, study length 131 weeks) was 4580 mg/kg/day. For the same compound, the TD50 (males, inhaled, site: extrahepatic tissue, lesion: angioma, dosed 25 weeks, study length 115 weeks) was 5810 mg/kg/day, the TD50 (males, inhaled, site: extrahepatic tissue, lesion: angioma, dosed 52 weeks, study length 123 weeks) was 31.4 mg/kg/day and the TD50 (males, inhaled, site: extrahepatic tissue, lesion: angioma, dosed 52 weeks, study length 131 weeks) was 8180 mg/kg/day. For the same compound, the TD50 (males, inhaled, site: extrahepatic tissue, lesion: angioma, dosed 52 weeks, study length 139 weeks) was 18 mg/kg/day.
